Experimental data: patent US11274083B2, “Substituted thiophenyl uracils, salts thereof and the use thereof as herbicidal agents” (Syngenta Crop Protection AG, priority 2017, dated 2022)

Tests used:
Type in all cases: in vivo
[1] = system: Zea mays; assay: Crop compatibility post-emergence, greenhouse pot test; settings: application rate 20 g/ha
Summary of the method: (§1)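 Sandy loam pots, greenhouse; one-leaf stage, 2–3 wk post-sowing; WP or EC, aq. spray on green parts, 0.5% additive, 600 L/ha; ~3 wk; visual score % vs untreated (0 = control-like, 100 = dead).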

[2] = system: Oryza sativa; assay: as above; settings: application rate 20 g/ha
Summary of the method: as §1

[3] = system: Stellaria media; assay: Herbicidal action post-emergence, greenhouse pot test
Summary of the method: (§2)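 Test plants, treated at the one-leaf stage 2 to 3 weeks after sowing in sandy loam, received a foliar spray at 80 g/ha or lower. Visual damage was rated about 3 weeks later as percent efficacy versus untreated plants.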

[4] = system: Echinochloa crus-galli; assay: as above
Summary of the method: as §2

[5] = system: Pharbitis purpurea; assay: as above
Summary of the method: as §2

[6] = system: Matricaria inodora; assay: as above
Summary of the method: as §2

[7] = system: Polygonum convolvulus; assay: as above
Summary of the method: as §2

[8] = system: Veronica persica; assay: as above
Summary of the method: as §2

[9] = system: Amaranthus retroflexus; assay: as above
Summary of the method: as §2

[10] = system: Alopecurus myosuroides; assay: as above; settings: scored visually after about 3 weeks vs untreated controls
Summary of the method: as §2

[11] = system: Avena fatua; assay: as above
Summary of the method: as §2

[12] = system: Setaria viridis; assay: as above; settings: application rate 20 g/ha
Summary of the method: as §2

[13] = system: Viola tricolor; assay: as above
Summary of the method: as §2

[14] = system: Abutilon theophrasti; assay: as above
Summary of the method: as §2

[15] = system: Digitaria sanguinalis; assay: as above; settings: application rate 20 g/ha
[16] = system: Matricaria inodora; assay: Herbicidal action pre-emergence, greenhouse pot test; settings: application rate 320 g/ha
Text: Seeds of mono- and dicotyledonous weeds and crop plants were laid out in plastic or organic plant pots and covered with soil. The compounds of the invention formulated in the form of wettable powders (WP) or as emulsion concentrates (EC) were then applied to the surface of the covering soil as an aqueous suspension or emulsion with addition of 0.5% additive at a water application rate equivalent to 600 L/ha. After the treatment, the pots were placed in a greenhouse and kept under good growth conditions for the test plants. After about 3 weeks, the efficacy of the preparations was scored visually as a percentage by comparison with untreated controls. For example, 100% efficacy=plants have died. 0% efficacy=like control plants. Tables B1 to B17 below show the efficacies of selected compounds of the general formula (I) […] aforementioned trial method.

[17] = system: Triticum aestivum; assay: Crop compatibility post-emergence, greenhouse pot test; settings: application rate 20 g/ha
Summary of the method: as §1

[18] = system: Hordeum murinum; assay: Herbicidal action pre-emergence, greenhouse pot test; settings: application rate 320 g/ha
Summary of the method: (§3)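 Under good greenhouse growth conditions, treated pots are compared visually with untreated ones about three weeks after spraying; the score runs from 0% (like control) to 100% (plants died). Treatment was a WP or EC spray to the soil over sown seeds, at up to 320 g/ha.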

[19] = system: Echinochloa crus-galli; assay: as above; settings: application rate 320 g/ha
Summary of the method: as §3

[20] = system: Pharbitis purpurea; assay: as above; settings: application rate 320 g/ha
Summary of the method: as §3

[21] = system: Polygonum convolvulus; assay: as above; settings: application rate 320 g/ha
Summary of the method: as §3

[22] = system: Veronica persica; assay: as above; settings: application rate 320 g/ha
Summary of the method: as §3

[23] = system: Amaranthus retroflexus; assay: as above
Summary of the method: as §3

[24] = system: Alopecurus myosuroides; assay: as above; settings: application rate 320 g/ha
Summary of the method: as §3

[25] = system: Avena fatua; assay: as above; settings: application rate 320 g/ha
Summary of the method: as §3

[26] = system: Cyperus esculentus; assay: as above; settings: application rate 320 g/ha
Summary of the method: as §3

[27] = system: Setaria viridis; assay: as above; settings: application rate 320 g/ha
Summary of the method: as §3

[28] = system: Viola tricolor; assay: as above; settings: application rate 320 g/ha
Summary of the method: as §3

[29] = system: Abutilon theophrasti; assay: as above; settings: application rate 320 g/ha
Summary of the method: as §3

[30] = system: Lolium rigidum; assay: Herbicidal action post-emergence, greenhouse pot test; settings: application rate 80 g/ha
Summary of the method: as §2

[31] = system: Stellaria media; assay: Herbicidal action pre-emergence, greenhouse pot test; settings: application rate 320 g/ha
Summary of the method: as §3

[32] = system: Lolium rigidum; assay: as above; settings: application rate 320 g/ha
Summary of the method: as §3

Structure (SMILES)	Zea mays (Efficacy in %) [1]	Oryza sativa (Efficacy in %) [2]	Stellaria media (Efficacy in %) ([3]; application rate 20 g/ha)	Echinochloa crus-galli (Efficacy in %) ([4]; application rate 20 g/ha)	Pharbitis purpurea (Efficacy in %) ([5]; application rate 20 g/ha)	Matricaria inodora (Efficacy in %) ([6]; application rate 20 g/ha)	Veronica persica (Efficacy in %) ([8]; application rate 20 g/ha)	Amaranthus retroflexus (Efficacy in %) ([9]; application rate 20 g/ha)	Setaria viridis (Efficacy in %) [12]	Abutilon theophrasti (Efficacy in %) ([14]; application rate 20 g/ha)	Matricaria inodora (Efficacy in %) [16]	Hordeum murinum (Efficacy in %) [18]	Echinochloa crus-galli (Efficacy in %) [19]	Pharbitis purpurea (Efficacy in %) [20]	Polygonum convolvulus (Efficacy in %) [21]	Veronica persica (Efficacy in %) [22]	Cyperus esculentus (Efficacy in %) [26]	Setaria viridis (Efficacy in %) [27]	Abutilon theophrasti (Efficacy in %) [29]	Polygonum convolvulus (Efficacy in %) ([7]; application rate 80 g/ha)	other results
CCOC(=O)CCOC(=O)C(CC)Sc1cc(-n2c(=O)cc(C(F)(F)F)n(C)c2=O)c(F)cc1Cl (stereo not drawn) [I.1-2-3, 3-Ethoxy-3-oxopropyl 2-({2-chloro-4-fluoro-5-[3-methyl-2,6-dioxo-4-(trifluoromethyl)-3,6-dihydropyrimidin-1(2H)-yl]phenyl}sulfanyl)butanoate]	0%	0%	100%	100%	100%	100%	100%	100%	100%	100%											Polygonum convolvulus (Efficacy in %) ([7]; application rate 20 g/ha): 100%; Alopecurus myosuroides (Efficacy in %) ([10]; application rate 20 g/ha): 90%; Avena fatua (Efficacy in %) ([11]; application rate 20 g/ha): 100%; Viola tricolor (Efficacy in %) ([13]; application rate 20 g/ha): 100%; Digitaria sanguinalis (Efficacy in %) [15]: 100%
CC(Sc1cc(-n2c(=O)cc(C(F)(F)F)n(C)c2=O)c(F)cc1Cl)C(=O)OC1CCNC1=O (stereo not drawn) [I.1-251]	10%	20%							100%		100%	90%	100%	100%	100%	100%	80%	100%	100%	100%	Triticum aestivum (Efficacy in %) [17]: 10%; Amaranthus retroflexus (Efficacy in %) ([23]; application rate 80 g/ha): 100%; Alopecurus myosuroides (Efficacy in %) [24]: 100%; Avena fatua (Efficacy in %) [25]: 90%; Viola tricolor (Efficacy in %) [28]: 100%; Stellaria media (Efficacy in %) ([3]; application rate 80 g/ha): 100%; Echinochloa crus-galli (Efficacy in %) ([4]; application rate 80 g/ha): 100%; Pharbitis purpurea (Efficacy in %) ([5]; application rate 80 g/ha): 100%; Matricaria inodora (Efficacy in %) ([6]; application rate 80 g/ha): 100%; Veronica persica (Efficacy in %) ([8]; application rate 80 g/ha): 100%; Amaranthus retroflexus (Efficacy in %) ([9]; application rate 80 g/ha): 100%; Alopecurus myosuroides (Efficacy in %) ([10]; application rate 80 g/ha): 100%; Lolium rigidum (Efficacy in %) [30]: 100%; Avena fatua (Efficacy in %) ([11]; application rate 80 g/ha): 80%; Viola tricolor (Efficacy in %) ([13]; application rate 80 g/ha): 100%; Abutilon theophrasti (Efficacy in %) ([14]; application rate 80 g/ha): 100%
COC(=O)CC(CC(=O)OC)OC(=O)CSc1cc(-n2c(=O)cc(C(F)(F)F)n(C)c2=O)c(F)cc1Cl [I.8-127]			100%	100%	100%	100%	100%	100%	100%	100%	100%	90%	100%	100%	100%	100%	90%	100%	100%	100%	Stellaria media (Efficacy in %) [31]: 100%; Amaranthus retroflexus (Efficacy in %) ([23]; application rate 20 g/ha): 100%; Lolium rigidum (Efficacy in %) [32]: 90%; Alopecurus myosuroides (Efficacy in %) ([10]; application rate 80 g/ha): 80%; Lolium rigidum (Efficacy in %) [30]: 90%; Avena fatua (Efficacy in %) ([11]; application rate 80 g/ha): 80%; Viola tricolor (Efficacy in %) ([13]; application rate 80 g/ha): 100%
